Experimental data as given in patent publication US10138233B2, “Imidazole compounds as modulators of FSHR and uses thereof” (Merck Patent GmbH, priority 2013, dated 2018).

Molecular target: T1, FSHR (Homo sapiens, UniProt P23945)
T1 construct: expressed in transfected cells; host or cells: CHO cells, clone Cho-FSHR-LUC-1-1-43
T1 sequence (P23945 18-695): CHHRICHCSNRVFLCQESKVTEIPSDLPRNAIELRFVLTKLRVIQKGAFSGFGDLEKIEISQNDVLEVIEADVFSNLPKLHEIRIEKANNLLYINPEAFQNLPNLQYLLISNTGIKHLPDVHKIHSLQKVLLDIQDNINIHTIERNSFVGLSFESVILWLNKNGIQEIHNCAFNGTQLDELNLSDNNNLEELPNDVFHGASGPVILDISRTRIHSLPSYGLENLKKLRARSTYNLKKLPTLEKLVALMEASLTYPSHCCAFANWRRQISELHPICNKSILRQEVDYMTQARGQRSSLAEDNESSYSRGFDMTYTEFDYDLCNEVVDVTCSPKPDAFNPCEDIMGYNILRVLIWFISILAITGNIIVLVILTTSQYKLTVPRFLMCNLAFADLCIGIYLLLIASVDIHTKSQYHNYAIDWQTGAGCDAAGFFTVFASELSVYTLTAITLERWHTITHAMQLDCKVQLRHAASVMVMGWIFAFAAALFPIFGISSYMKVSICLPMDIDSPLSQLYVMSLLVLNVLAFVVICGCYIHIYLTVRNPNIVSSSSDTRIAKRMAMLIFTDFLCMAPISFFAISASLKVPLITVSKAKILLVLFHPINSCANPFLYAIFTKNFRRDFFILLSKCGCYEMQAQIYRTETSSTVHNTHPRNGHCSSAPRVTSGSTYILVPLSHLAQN
Test: EC50 of cyclic AMP production in CHO FSHR cells + EC20 FSH (Assay A)
Assay type: cell-based
Conditions: CHO-FSHR-LUC cells, in presence of EC20 FSH, cAMP HTRF, 1 h 37° C.
Procedure: EC50 of cyclic AMP production in CHO FSHR cells+EC20 FSH (Assay A)
2500 Cho-FSHR-LUC-1-1-43 cells were plated per well in 5 μl of phenol red free DMEM/F12+1% FBS. […] Cells were assayed by adding 100 μl of 2×EC20 FSH/IBMX in DMEM/F12+0.1% BSA) by Multidrop to 2 μl of test compound stamped in 384 well plates (compounds are diluted 1:50). […] The compound plate map was as follows: Column 1: 2 μl of DMSO; Column 2: 2 μl of DMSO; Columns 3-12 and 13-24: 2 μl of test compound, diluted 1:4 in 100% DMSO, or 2 μl of FSH, diluted 1:4 in DMEM/F12+0.1% BSA. The starting concentration for FSH was 50 nM (final concentration was 0.5 nM). […] 10 μl of mixed HTRF (CisBio #62AM4PEC) reagents were added per well and incubated at room temperature for 1 h. The plates were read on Envision using the cAMP HTRF—low volume 384 well protocol. […] Values given in percent (%) indicate the percental effect (response) at a certain concentration of agonist relative to the maximum response of the FSH standard.

For `COc1cc2c(cc1-c1ccn(C)c1)-n1c(-c3cccs3)nc(C(=O)NC3(C)COC3)c1CC2` [Compound 98, 7-Methoxy-8-(1-methyl-1H-pyrrol-3-yl)-1-thiophen-2-yl-4,5-dihydro-imidazo[1,5-a]quinoline-3-carboxylic acid (3-methyl-oxetan-3-yl)-amide], the EC50 was 1000 to 5000 nM.
`COc1cc2c(cc1OC(C)C)-n1c(-c3sc(C)cc3C)nc(C(=O)N3CCOCC3(C)C)c1CC2` [Compound 99] was tested, and the EC50 was 100 to 1000 nM.
For `COc1cc2c(cc1OC(C)C)-n1c(C3=CCCC3(C)C)nc(C(=O)N3CCOCC3(C)C)c1CC2` [Compound 100], the EC50 was < 100 nM.
`COc1cc2c(cc1OC(C)C)-n1c(-c3cc(Cl)ccc3F)nc(C(=O)N3CCOCC3(C)C)c1CC2` [Compound 101] was tested, and the EC50 was 100 to 1000 nM.
In the case of `COc1ccc(-c2nc(C(=O)N3CCOCC3(C)C)c3n2-c2cc(OC(C)C)c(OC)cc2CC3)cc1Cl` [Compound 103], the EC50 is reported as > 5000 nM.
`COc1cc2c(cc1OC(C)C)-n1c(-c3cc(F)ccc3OC)nc(C(=O)N3CCOCC3(C)C)c1CC2` [Compound 104] was tested, and the EC50 was 1000 to 5000 nM.
Work on `COc1cc2c(cc1OC(C)C)-n1c(-c3cc(Cl)ccc3OC)nc(C(=O)N3CCOCC3(C)C)c1CC2` [Compound 105] yielded an EC50 of 1000 to 5000 nM.
`COc1cc2c(cc1OC(C)C)-n1c(-c3ccsc3C)nc(C(=O)N3CCOCC3(C)C)c1CC2` [Compound 106] gave an EC50 of 100 to 1000 nM.
With `COc1cc2c(cc1OC(C)C)-n1c(-c3ccc(F)c(C#N)c3)nc(C(=O)N3CCOCC3(C)C)c1CC2` [Compound 107] the EC50 was > 5000 nM.
`COc1cc(-c2nc(C(=O)N3CCOCC3(C)C)c3n2-c2cc(OC(C)C)c(OC)cc2CC3)ccc1F` [Compound 108] was tested, and the EC50 was 1000 to 5000 nM.
`COc1cc2c(cc1OC(C)C)-n1c(-c3ccc(Cl)c(F)c3)nc(C(=O)N3CCOCC3(C)C)c1CC2` [Compound 109] showed an EC50 of 100 to 1000 nM.
With `COc1cc2c(cc1OC(C)C)-n1c(-c3ccc(F)c(C(F)(F)F)c3)nc(C(=O)N3CCOCC3(C)C)c1CC2` [Compound 111] the EC50 was 1000 to 5000 nM.
`COc1cc2c(cc1OC(C)C)-n1c(-c3cccc(OC)c3F)nc(C(=O)N3CCOCC3(C)C)c1CC2` [Compound 112] showed an EC50 of 1000 to 5000 nM.
`COc1cc2c(cc1OC(C)C)-n1c(-c3cc(Cl)c(F)cc3F)nc(C(=O)N3CCOCC3(C)C)c1CC2` [Compound 113] showed an EC50 of 1000 to 5000 nM.
Work on `COc1cccc(-c2nc(C(=O)N3CCOCC3(C)C)c3n2-c2cc(OC(C)C)c(OC)cc2CC3)c1` [Compound 115] yielded an EC50 of 100 to 1000 nM.
`COc1cc2c(cc1OC(C)C)-n1c(-c3ccc(F)c(Cl)c3)nc(C(=O)N3CCOCC3(C)C)c1CC2` [Compound 116] was tested, and the EC50 was 100 to 1000 nM.
In the case of `COc1cc2c(cc1OC(C)C)-n1c(-c3cc(Cl)ccc3OC(F)(F)F)nc(C(=O)N3CCOCC3(C)C)c1CC2` [Compound 117], the EC50 is reported as 1000 to 5000 nM.
For `COc1ccc(-c2nc(C(=O)N3CCOCC3(C)C)c3n2-c2cc(OC(C)C)c(OC)cc2CC3)cc1F` [Compound 118], the EC50 was > 5000 nM.
In the case of `COc1cc2c(cc1OC(C)C)-n1c(-c3cc(C(F)(F)F)cc(C(F)(F)F)c3)nc(C(=O)N3CCOCC3(C)C)c1CC2` [Compound 119], the EC50 is reported as 100 to 1000 nM.
`COc1cc2c(cc1OC(C)C)-n1c(-c3cscc3C)nc(C(=O)N3CCOCC3(C)C)c1CC2` [Compound 120] was tested, and the EC50 was < 100 nM.
`COc1cc2c(cc1OC(C)C)-n1c(-c3cccc4c3OCCO4)nc(C(=O)N3CCOCC3(C)C)c1CC2` [Compound 121] was tested, and the EC50 was > 5000 nM.
Work on `COc1cc2c(cc1OC(C)C)-n1c(-c3cc(F)c(F)c(Cl)c3)nc(C(=O)N3CCOCC3(C)C)c1CC2` [Compound 122] yielded an EC50 of 100 to 1000 nM.
`COc1cc2c(cc1OC(C)C)-n1c(-c3ccc(F)c(Cl)c3F)nc(C(=O)N3CCOCC3(C)C)c1CC2` [Compound 123] showed an EC50 of 1000 to 5000 nM.
In the case of `COc1cc2c(cc1OC(C)C)-n1c(-c3ccc(C#N)c(C(F)(F)F)c3)nc(C(=O)N3CCOCC3(C)C)c1CC2` [Compound 124], the EC50 is reported as 1000 to 5000 nM.
For `COc1ccc(-c2nc(C(=O)N3CCOCC3(C)C)c3n2-c2cc(OC(C)C)c(OC)cc2CC3)cc1C` [Compound 125], the EC50 was 1000 to 5000 nM.
For `COc1cc2c(cc1OC(C)C)-n1c(-c3ccc(C)c(F)c3)nc(C(=O)N3CCOCC3(C)C)c1CC2` [Compound 126], the EC50 was 100 to 1000 nM.
